Patent US12054494B2, “Compound with anticancer activity” (KYOWA KIRIN CO., LTD., priority 2018, dated 2024)

Test system: SU-DHL-4 cells
Experiment: Inhibitory effect on cell viability (Cell Counting Kit-8)
Format: cell-based
Conditions: Homo sapiens, 72 hours culture with test compound, concentration showing 90% inhibition rate of cell viability
Experimental: Inhibitiory Effect on Cell Viability
SU-DHL-4 cells (Code No. ACC 495, Deutsche Sammlung von Mikroorganismen and Zellkulturen GmbH) were cultured at 37° C. using a carbon dioxide incubator (95% air, 5% CO2) in RPMI1640 medium (Code No. 11875-093, Thermo Fisher Scientific) in which inactivated fetal bovine serum (FBS: Code No. 10099-148, Thermo Fisher Scientific) in an amount to give a final concentration of 10 vol % and penicillin/streptomycin solution (PS: Code No. 15140-122, Thermo Fisher Scientific) in an amount to give a final concentration of 1 vol % were added. The cells were passaged twice a week at a volume of 20-40 mL so as to maintain a cell concentration of 1×10^6 cells/mL or less.
The cultured SU-DHL-4 cells were seeded at 2000 cells/well in a transparent 384-well plate (Code No. 781182, Greiner bio-one). After seeding, the cells were precultured at 37° C. in a carbon dioxide gas incubator for 18 to 25 hours. Next, 1, 0.1 or 0.01 mmol/L DMSO solution of the test compound was prepared and a 9-step dilution series were prepared so that the concentration will be 200 times the final concentration in the RPMI1640 medium containing the above FBS and PS, and 1/200 volume of the dilution series were added to each well. At this time, the final concentration of DMSO was adjusted to be 0.1 vol %. After adding the test compound, the cells were cultured at 37° C. in a carbon dioxide gas incubator for 72 hours. Next, 0.020 mL of Cell Counting Kit-8 (Code No. CK04, DOJINDO) solution diluted 2-fold or 4-fold with phosphate buffered saline (PBS) was added to each well. Color reaction was carried out in a carbon dioxide gas incubator at 37° C. for 2 to 3 hours, and the absorbance at a wavelength of 450 nm was measured using SpectraMax 340PC (Molecular Devices). The inhibition rate of cell viability was calculated by the following formula, and the concentration of the test compound (IC90 value) showing a 90% inhibition rate of cell viability was calculated. Inhibition rate of cell viability (%)=100−(A−B)/(C−B)×100 • A: Absorbance of a well containing test compound • B: Absorbance of a well without addition of cells • C: Absorbance of a well without addition of test compound

Structure (SMILES) | IC90
CCC(=O)N1c2ccccc2[C@H](Nc2ccc(CNC3CN(C(=O)c4ccc(N[C@@H]5C[C@H](C)N(C(=O)CC)c6ccccc65)cc4)C3)cc2)C[C@@H]1C [Compound 5e, 1-((2S,4R)-2-Methyl-4-((4-(((1-(4-(((2S,4R)-2-methyl-1-propionyl-1,2,3,4-tetrahydroquinolin-4-yl)amino)benzoyl)azetidin-3-yl)amino)methyl)phenyl)amino)-3,4-dihydroquinolin-1(2H)-yl)propan-1-one] | 5.93 nM
CCC(=O)N1c2ccccc2[C@H](Nc2ccc(NC(=O)[C@@H](NC(=O)c3ccc(N[C@@H]4C[C@H](C)N(C(=O)CC)c5ccccc54)cc3)C(C)C)cc2)C[C@@H]1C (relative stereo) [Compound 2e, N-{(S)-3-Methyl-1-[(4-{[(2S*,4R*)-2-methyl-1-propionyl-1,2,3,4-tetrahydroquinolin-4-yl]amino}phenyl)amino]-1-oxobutan-2-yl}-4-{[(2S,4R)-2-methyl-1-propionyl-1,2,3,4-tetrahydroquinolin-4-yl]amino}benzamide] | 16.3 nM
CCC(=O)N1c2ccccc2[C@H](Nc2ccc(C(=O)NC3CN(C(=O)c4ccc(N[C@@H]5C[C@H](C)N(C(=O)CC)c6ccccc65)cc4)C3)cc2)C[C@@H]1C (relative stereo) [Compound 1g, 4-{[(2S*,4R*)-2-Methyl-1-propionyl-1,2,3,4-tetrahydroquinolin-4-yl]amino}-N-[1-(4-{[(2S*,4R*)-2-methyl-1-propionyl-1,2,3,4-tetrahydroquinolin-4-yl]amino}benzoyl)azetidin-3-yl]benzamide] | 10.6 nM
CCC(=O)N1c2ccccc2[C@H](Nc2ccc(C(=O)NCc3noc(-c4ccc(N[C@@H]5C[C@H](C)N(C(=O)CC)c6ccccc65)cc4)n3)cc2)C[C@@H]1C [Compound 3d, 4-{[(2S,4R)-2-Methyl-1-propionyl-1,2,3,4-tetrahydroquinolin-4-yl]amino}-N-{[5-(4-{[(2S,4R)-2-methyl-1-propionyl-1,2,3,4-tetrahydroquinolin-4-yl]amino}phenyl)-1,2,4-oxadiazol-3-yl]methyl}benzamide] | 0.11 nM
CCC(=O)N1c2ccccc2[C@H](Nc2ccc(C(=O)NC3CCN(C(=O)c4ccc(C5=NCc6nnc(C)n6-c6sc(C)c(C)c65)cc4)CC3)cc2)C[C@@H]1C [Compound 1m, 4-{[(2S,4R)-2-Methyl-1-propionyl-1,2,3,4-tetrahydroquinolin-4-yl]amino}-N-{1-[4-(2,3,9-trimethyl-6H-thieno[3,2-f][1,2,4]triazolo[4,3-a][1,4]diazepin-4-yl)benzoyl]piperidin-4-yl}benzamide] | 0.53 nM
CCC(=O)N1c2ccccc2[C@H](Nc2ccc(OCCCNC(=O)c3ccc(N[C@@H]4C[C@H](C)N(C(=O)CC)c5ccccc54)cc3)cc2)C[C@@H]1C [Compound 5p, 4-(((2S,4R)-2-Methyl-1-propionyl-1,2,3,4-tetrahydroquinolin-4-yl)amino)-N-(3-(4-(((2S,4R)-2-methyl-1-propionyl-1,2,3,4-tetrahydroquinolin-4-yl)amino)phenoxy)propyl)benzamide] | 2.68 nM
CCC(=O)N1c2ccccc2[C@H](Nc2ccc(NC(=O)COCC(=O)Nc3ccc(N[C@@H]4C[C@H](C)N(C(=O)CC)c5ccccc54)cc3)cc2)C[C@@H]1C [Compound 5o, 2,2′-Oxybis(N-(4-(((2S,4R)-2-methyl-1-propionyl-1,2,3,4-tetrahydroquinolin-4-yl)amino)phenyl)acetamide)] | 0.14 nM
CCC(=O)N1c2ccccc2[C@H](Nc2ccc(NC(=O)CNCC(=O)Nc3ccc(N[C@@H]4C[C@H](C)N(C(=O)CC)c5ccccc54)cc3)cc2)C[C@@H]1C [Compound 5d, 2,2′-Azanediylbis(N-(4-(((2S,4R)-2-methyl-1-propionyl-1,2,3,4-tetrahydroquinolin-4-yl)amino)phenyl)acetamide)] | 0.67 nM

Further lines, results first:

IC90 | Structure (SMILES)
0.83 nM | CCC(=O)N1c2ccccc2[C@H](Nc2ccc(C(=O)NCCc3cn(-c4ccc(N[C@@H]5C[C@H](C)N(C(=O)CC)c6ccccc65)cc4)nn3)cc2)C[C@@H]1C [Compound 6c, 4-(((2S,4R)-2-Methyl-1-propionyl-1,2,3,4-tetrahydroquinolin-4-yl)amino)-N-(2-(1-(4-(((2S,4R)-2-methyl-1-propionyl-1,2,3,4-tetrahydroquinolin-4-yl)amino)phenyl)-1H-1,2,3-triazol-4-yl)ethyl)benzamide]
0.01 nM | CCC(=O)N1c2ccccc2[C@H](Nc2ccc(C(=O)NCC#CC(=O)Nc3ccc(N[C@@H]4C[C@H](C)N(C(=O)CC)c5ccccc54)nc3)cc2)C[C@@H]1C (relative stereo) [Compound 10n, 4-(((2S,4R)-2-Methyl-1-propionyl-1,2,3,4-tetrahydroquinolin-4-yl)amino)-N-(4-((6-(((2S*,4R*)-2-methyl-1-propionyl-1,2,3,4-tetrahydroquinolin-4-yl)amino)pyridin-3-yl)amino)-4-oxobut-2-yn-1-yl)benzamide]
41.5 nM | CCC(=O)N1c2ccccc2[C@H](Nc2ccc(C(=O)N3CCCN(C(=O)c4ccc(N[C@@H]5C[C@H](C)N(C(=O)CC)c6ccccc65)cc4)CC3)cc2)C[C@@H]1C [Compound 6p, 1,1′-((2S,2′S,4R,4′R)-(((1,4-Diazepane-1,4-dicarbonyl)bis(4,1-phenylene))bis(azanediyl))bis(2-methyl-3,4-dihydroquinoline-4,1(2H)-diyl))bis(propan-1-one)]
1.47 nM | CCC(=O)N1c2ccccc2[C@H](Nc2ccc(-c3cn4c(n3)CN(C(=O)c3ccc(C5=NCc6nnc(C)n6-c6sc(C)c(C)c65)cc3)CC4)cc2)C[C@@H]1C [Compound 14r, 1-((2S,4R)-2-Methyl-4-((4-(7-(4-(2,3,9-trimethyl-6H-thieno[3,2-f][1,2,4]triazolo[4,3-a][1,4]diazepin-4-yl)benzoyl)-5,6,7,8-tetrahydroimidazo[1,2-a]pyrazin-2-yl)phenyl)amino)-3,4-dihydroquinolin-1(2H)-yl)propan-1-one]
0.31 nM | CCC(=O)N1c2ccccc2[C@H](Nc2ccc(NC(=O)CNC(=O)Nc3ccc(C4=NCc5nnc(C)n5-c5sc(C)c(C)c54)cc3)cc2)C[C@@H]1C [Compound 14f, N-(4-(((2S,4R)-2-Methyl-1-propionyl-1,2,3,4-tetrahydroquinolin-4-yl)amino)phenyl)-2-(3-(4-(2,3,9-trimethyl-6H-thieno[3,2-f][1,2,4]triazolo[4,3-a][1,4]diazepin-4-yl)phenyl)ureido)acetamide]
0.49 nM | CCC(=O)N1c2ccccc2[C@H](Nc2ccc(SCCNC(=O)c3ccc(C4=N[C@@H](CC(=O)OCCN(C)C)c5nnc(C)n5-c5sc(C)c(C)c54)cc3)cc2)C[C@@H]1C [Compound 13a, 2-(Dimethylamino)ethyl 2-((S)-2,3,9-trimethyl-4-(4-((2-((4-(((2S,4R)-2-methyl-1-propionyl-1,2,3,4-tetrahydroquinolin-4-yl)amino)phenyl)thio)ethyl)carbamoyl)phenyl)-6H-thieno[3,2-f][1,2,4]triazolo[4,3-a][1,4]diazepin-6-yl)acetate]
30.9 nM | Cc1sc2c(c1C)C(c1ccc(C(=O)NCC(=O)CNC(=O)c3ccc(C4=NCc5nnc(C)n5-c5sc(C)c(C)c54)cc3)cc1)=NCc1nnc(C)n1-2 [Compound 14o, N,N′-(2-Oxopropane-1,3-diyl)bis(4-(2,3,9-trimethyl-6H-thieno[3,2-f][1,2,4]triazolo[4,3-a][1,4]diazepin-4-yl)benzamide)]
9.16 nM | CCC(=O)N1c2ccc(F)cc2[C@H](Nc2ccc(C(=O)NCCNC(=O)c3ccc(N[C@@H]4C[C@H](C)N(C(=O)CC)c5ccc(F)cc54)cc3)cc2)C[C@@H]1C [Compound 10r, N,N′-(Ethane-1,2-diyl)bis(4-(((2S,4R)-6-fluoro-2-methyl-1-propionyl-1,2,3,4-tetrahydroquinolin-4-yl)amino)benzamide)]
21.7 nM | CCC(=O)N1c2ccccc2[C@H](Nc2ccc(NC(=O)CCCC(=O)Nc3ccc(N[C@@H]4C[C@H](C)N(C(=O)CC)c5cc(CCCN)ccc54)cc3)cc2)C[C@@H]1C (relative stereo) [Compound 10s, N^1-(4-(((2S*,4R*)-7-(3-Aminopropyl)-2-methyl-1-propionyl-1,2,3,4-tetrahydroquinolin-4-yl)amino)phenyl)-N^5-(4-(((2S,4R)-2-methyl-1-propionyl-1,2,3,4-tetrahydroquinolin-4-yl)amino)phenyl)glutaramide]
0.1 nM | CCC(=O)N1c2ccccc2[C@H](Nc2ccc(NC(=O)CCS(=O)(=O)Nc3ccc(N[C@@H]4C[C@H](C)N(C(=O)CC)c5ccccc54)cc3)cc2)C[C@@H]1C [Compound 6b, N-(4-(((2S,4R)-2-Methyl-1-propionyl-1,2,3,4-tetrahydroquinolin-4-yl)amino)phenyl)-3-(N-(4-(((2S,4R)-2-methyl-1-propionyl-1,2,3,4-tetrahydroquinolin-4-yl)amino)phenyl)sulfamoyl)propanamide]
